Read-outs that look alike come from different tables or passages of the source.
What was measured:
Type in all cases: cell-based
Botrytis cinerea = conditions: 25° C., 1 day or 2 days
[1] = test system: Colletotrichum destructivum; conditions: 25° C., 1 day or 2 days
[2] = test system: Colletotrichum orbiculare; conditions: 25° C., 1 day or 2 days
Fusarium oxysporum = test system: Fusarium oxysporum
Pyricularia oryzae = conditions: 25° C., 1 day or 2 days

AFSER (listed as Solanum lycopersicum) [TsORF18-2-5aa-6]
0: Plate antimicrobial activity test Botrytis cinerea (level) (Botrytis cinerea; peptide 1 μM) | Plate antimicrobial activity test Botrytis cinerea (level) (Botrytis cinerea; peptide 10 μM) | Plate antimicrobial activity test Botrytis cinerea (level) (Botrytis cinerea; peptide 100 μM) | Plate antimicrobial activity test Colletotrichum destructivum (level) ([1]; peptide 1 μM) | Plate antimicrobial activity test Colletotrichum destructivum (level) ([1]; peptide 10 μM) | Plate antimicrobial activity test Colletotrichum destructivum (level) ([1]; peptide 100 μM) | Plate antimicrobial activity test Collectotrichum orbiculare (level) ([2]; peptide 1 μM) | Plate antimicrobial activity test Collectotrichum orbiculare (level) ([2]; peptide 10 μM) | Plate antimicrobial activity test Collectotrichum orbiculare (level) ([2]; peptide 100 μM) | Plate antimicrobial activity test Fusarium oxysporum (level) (Fusarium oxysporum) | Plate antimicrobial activity test Pyricularia oryzae (level) (Pyricularia oryzae; peptide 1 μM) | Plate antimicrobial activity test Pyricularia oryzae (level) (Pyricularia oryzae; peptide 10 μM) | Plate antimicrobial activity test Pyricularia oryzae (level) (Pyricularia oryzae; peptide 100 μM)

AFSERTRK (listed as Solanum lycopersicum) [TsORF18-2-8aa-6]
0: Plate antimicrobial activity test Botrytis cinerea (level) (Botrytis cinerea; peptide 1 μM) | Plate antimicrobial activity test Botrytis cinerea (level) (Botrytis cinerea; peptide 10 μM) | Plate antimicrobial activity test Botrytis cinerea (level) (Botrytis cinerea; peptide 100 μM) | Plate antimicrobial activity test Colletotrichum destructivum (level) ([1]; peptide 1 μM) | Plate antimicrobial activity test Colletotrichum destructivum (level) ([1]; peptide 10 μM) | Plate antimicrobial activity test Colletotrichum destructivum (level) ([1]; peptide 100 μM) | Plate antimicrobial activity test Collectotrichum orbiculare (level) ([2]; peptide 1 μM) | Plate antimicrobial activity test Collectotrichum orbiculare (level) ([2]; peptide 10 μM) | Plate antimicrobial activity test Collectotrichum orbiculare (level) ([2]; peptide 100 μM) | Plate antimicrobial activity test Fusarium oxysporum (level) (Fusarium oxysporum) | Plate antimicrobial activity test Pyricularia oryzae (level) (Pyricularia oryzae; peptide 1 μM) | Plate antimicrobial activity test Pyricularia oryzae (level) (Pyricularia oryzae; peptide 10 μM) | Plate antimicrobial activity test Pyricularia oryzae (level) (Pyricularia oryzae; peptide 100 μM)

ERTRK (listed as Solanum lycopersicum) [TsORF18-2-5aa-9]
0: Plate antimicrobial activity test Botrytis cinerea (level) (Botrytis cinerea; peptide 1 μM) | Plate antimicrobial activity test Botrytis cinerea (level) (Botrytis cinerea; peptide 10 μM) | Plate antimicrobial activity test Botrytis cinerea (level) (Botrytis cinerea; peptide 100 μM) | Plate antimicrobial activity test Colletotrichum destructivum (level) ([1]; peptide 1 μM) | Plate antimicrobial activity test Colletotrichum destructivum (level) ([1]; peptide 10 μM) | Plate antimicrobial activity test Colletotrichum destructivum (level) ([1]; peptide 100 μM) | Plate antimicrobial activity test Collectotrichum orbiculare (level) ([2]; peptide 1 μM) | Plate antimicrobial activity test Collectotrichum orbiculare (level) ([2]; peptide 10 μM) | Plate antimicrobial activity test Collectotrichum orbiculare (level) ([2]; peptide 100 μM) | Plate antimicrobial activity test Fusarium oxysporum (level) (Fusarium oxysporum) | Plate antimicrobial activity test Pyricularia oryzae (level) (Pyricularia oryzae; peptide 1 μM) | Plate antimicrobial activity test Pyricularia oryzae (level) (Pyricularia oryzae; peptide 10 μM) | Plate antimicrobial activity test Pyricularia oryzae (level) (Pyricularia oryzae; peptide 100 μM)

FPAFS (listed as Solanum lycopersicum) [TsORF18-2-5aa-4]
0: Plate antimicrobial activity test Botrytis cinerea (level) (Botrytis cinerea; peptide 1 μM) | Plate antimicrobial activity test Botrytis cinerea (level) (Botrytis cinerea; peptide 10 μM) | Plate antimicrobial activity test Botrytis cinerea (level) (Botrytis cinerea; peptide 100 μM) | Plate antimicrobial activity test Colletotrichum destructivum (level) ([1]; peptide 1 μM) | Plate antimicrobial activity test Colletotrichum destructivum (level) ([1]; peptide 10 μM) | Plate antimicrobial activity test Colletotrichum destructivum (level) ([1]; peptide 100 μM) | Plate antimicrobial activity test Collectotrichum orbiculare (level) ([2]; peptide 1 μM) | Plate antimicrobial activity test Collectotrichum orbiculare (level) ([2]; peptide 10 μM) | Plate antimicrobial activity test Collectotrichum orbiculare (level) ([2]; peptide 100 μM) | Plate antimicrobial activity test Fusarium oxysporum (level) (Fusarium oxysporum) | Plate antimicrobial activity test Pyricularia oryzae (level) (Pyricularia oryzae; peptide 1 μM) | Plate antimicrobial activity test Pyricularia oryzae (level) (Pyricularia oryzae; peptide 10 μM) | Plate antimicrobial activity test Pyricularia oryzae (level) (Pyricularia oryzae; peptide 100 μM)

FPAFSERT (listed as Solanum lycopersicum) [TsORF18-2-8aa-4]
0: Plate antimicrobial activity test Botrytis cinerea (level) (Botrytis cinerea; peptide 1 μM) | Plate antimicrobial activity test Botrytis cinerea (level) (Botrytis cinerea; peptide 10 μM) | Plate antimicrobial activity test Botrytis cinerea (level) (Botrytis cinerea; peptide 100 μM) | Plate antimicrobial activity test Colletotrichum destructivum (level) ([1]; peptide 1 μM) | Plate antimicrobial activity test Colletotrichum destructivum (level) ([1]; peptide 10 μM) | Plate antimicrobial activity test Colletotrichum destructivum (level) ([1]; peptide 100 μM) | Plate antimicrobial activity test Collectotrichum orbiculare (level) ([2]; peptide 1 μM) | Plate antimicrobial activity test Collectotrichum orbiculare (level) ([2]; peptide 10 μM) | Plate antimicrobial activity test Collectotrichum orbiculare (level) ([2]; peptide 100 μM) | Plate antimicrobial activity test Fusarium oxysporum (level) (Fusarium oxysporum) | Plate antimicrobial activity test Pyricularia oryzae (level) (Pyricularia oryzae; peptide 1 μM) | Plate antimicrobial activity test Pyricularia oryzae (level) (Pyricularia oryzae; peptide 10 μM) | Plate antimicrobial activity test Pyricularia oryzae (level) (Pyricularia oryzae; peptide 100 μM)

FSERT (listed as Solanum lycopersicum) [TsORF18-2-5aa-7]
0: Plate antimicrobial activity test Botrytis cinerea (level) (Botrytis cinerea; peptide 1 μM) | Plate antimicrobial activity test Botrytis cinerea (level) (Botrytis cinerea; peptide 10 μM) | Plate antimicrobial activity test Botrytis cinerea (level) (Botrytis cinerea; peptide 100 μM) | Plate antimicrobial activity test Colletotrichum destructivum (level) ([1]; peptide 1 μM) | Plate antimicrobial activity test Colletotrichum destructivum (level) ([1]; peptide 10 μM) | Plate antimicrobial activity test Colletotrichum destructivum (level) ([1]; peptide 100 μM) | Plate antimicrobial activity test Collectotrichum orbiculare (level) ([2]; peptide 1 μM) | Plate antimicrobial activity test Collectotrichum orbiculare (level) ([2]; peptide 10 μM) | Plate antimicrobial activity test Collectotrichum orbiculare (level) ([2]; peptide 100 μM) | Plate antimicrobial activity test Fusarium oxysporum (level) (Fusarium oxysporum) | Plate antimicrobial activity test Pyricularia oryzae (level) (Pyricularia oryzae; peptide 1 μM) | Plate antimicrobial activity test Pyricularia oryzae (level) (Pyricularia oryzae; peptide 10 μM) | Plate antimicrobial activity test Pyricularia oryzae (level) (Pyricularia oryzae; peptide 100 μM)

FSERTRKF (listed as Solanum lycopersicum) [TsORF18-2-8aa-7]
0: Plate antimicrobial activity test Botrytis cinerea (level) (Botrytis cinerea; peptide 1 μM) | Plate antimicrobial activity test Botrytis cinerea (level) (Botrytis cinerea; peptide 10 μM) | Plate antimicrobial activity test Botrytis cinerea (level) (Botrytis cinerea; peptide 100 μM) | Plate antimicrobial activity test Colletotrichum destructivum (level) ([1]; peptide 1 μM) | Plate antimicrobial activity test Colletotrichum destructivum (level) ([1]; peptide 10 μM) | Plate antimicrobial activity test Colletotrichum destructivum (level) ([1]; peptide 100 μM) | Plate antimicrobial activity test Collectotrichum orbiculare (level) ([2]; peptide 1 μM) | Plate antimicrobial activity test Collectotrichum orbiculare (level) ([2]; peptide 10 μM) | Plate antimicrobial activity test Collectotrichum orbiculare (level) ([2]; peptide 100 μM) | Plate antimicrobial activity test Fusarium oxysporum (level) (Fusarium oxysporum) | Plate antimicrobial activity test Pyricularia oryzae (level) (Pyricularia oryzae; peptide 1 μM) | Plate antimicrobial activity test Pyricularia oryzae (level) (Pyricularia oryzae; peptide 10 μM) | Plate antimicrobial activity test Pyricularia oryzae (level) (Pyricularia oryzae; peptide 100 μM)

FWRIW (listed as Solanum lycopersicum) [TsORF18-2-5aa-14]
0: Plate antimicrobial activity test Botrytis cinerea (level) (Botrytis cinerea; peptide 1 μM) | Plate antimicrobial activity test Botrytis cinerea (level) (Botrytis cinerea; peptide 10 μM) | Plate antimicrobial activity test Botrytis cinerea (level) (Botrytis cinerea; peptide 100 μM) | Plate antimicrobial activity test Colletotrichum destructivum (level) ([1]; peptide 1 μM) | Plate antimicrobial activity test Colletotrichum destructivum (level) ([1]; peptide 10 μM) | Plate antimicrobial activity test Colletotrichum destructivum (level) ([1]; peptide 100 μM) | Plate antimicrobial activity test Collectotrichum orbiculare (level) ([2]; peptide 1 μM) | Plate antimicrobial activity test Collectotrichum orbiculare (level) ([2]; peptide 10 μM) | Plate antimicrobial activity test Collectotrichum orbiculare (level) ([2]; peptide 100 μM) | Plate antimicrobial activity test Fusarium oxysporum (level) (Fusarium oxysporum) | Plate antimicrobial activity test Pyricularia oryzae (level) (Pyricularia oryzae; peptide 1 μM) | Plate antimicrobial activity test Pyricularia oryzae (level) (Pyricularia oryzae; peptide 10 μM) | Plate antimicrobial activity test Pyricularia oryzae (level) (Pyricularia oryzae; peptide 100 μM)

GFPAF (listed as Solanum lycopersicum) [TsORF18-2-5aa-3]
0: Plate antimicrobial activity test Botrytis cinerea (level) (Botrytis cinerea; peptide 1 μM) | Plate antimicrobial activity test Botrytis cinerea (level) (Botrytis cinerea; peptide 10 μM) | Plate antimicrobial activity test Botrytis cinerea (level) (Botrytis cinerea; peptide 100 μM) | Plate antimicrobial activity test Colletotrichum destructivum (level) ([1]; peptide 1 μM) | Plate antimicrobial activity test Colletotrichum destructivum (level) ([1]; peptide 10 μM) | Plate antimicrobial activity test Colletotrichum destructivum (level) ([1]; peptide 100 μM) | Plate antimicrobial activity test Collectotrichum orbiculare (level) ([2]; peptide 1 μM) | Plate antimicrobial activity test Collectotrichum orbiculare (level) ([2]; peptide 10 μM) | Plate antimicrobial activity test Collectotrichum orbiculare (level) ([2]; peptide 100 μM) | Plate antimicrobial activity test Fusarium oxysporum (level) (Fusarium oxysporum) | Plate antimicrobial activity test Pyricularia oryzae (level) (Pyricularia oryzae; peptide 1 μM) | Plate antimicrobial activity test Pyricularia oryzae (level) (Pyricularia oryzae; peptide 10 μM) | Plate antimicrobial activity test Pyricularia oryzae (level) (Pyricularia oryzae; peptide 100 μM)

GFPAFSER (listed as Solanum lycopersicum) [TsORF18-2-8aa-3]
0: Plate antimicrobial activity test Botrytis cinerea (level) (Botrytis cinerea; peptide 1 μM) | Plate antimicrobial activity test Botrytis cinerea (level) (Botrytis cinerea; peptide 10 μM) | Plate antimicrobial activity test Botrytis cinerea (level) (Botrytis cinerea; peptide 100 μM) | Plate antimicrobial activity test Colletotrichum destructivum (level) ([1]; peptide 1 μM) | Plate antimicrobial activity test Colletotrichum destructivum (level) ([1]; peptide 10 μM) | Plate antimicrobial activity test Colletotrichum destructivum (level) ([1]; peptide 100 μM) | Plate antimicrobial activity test Collectotrichum orbiculare (level) ([2]; peptide 1 μM) | Plate antimicrobial activity test Collectotrichum orbiculare (level) ([2]; peptide 10 μM) | Plate antimicrobial activity test Collectotrichum orbiculare (level) ([2]; peptide 100 μM) | Plate antimicrobial activity test Fusarium oxysporum (level) (Fusarium oxysporum) | Plate antimicrobial activity test Pyricularia oryzae (level) (Pyricularia oryzae; peptide 1 μM) | Plate antimicrobial activity test Pyricularia oryzae (level) (Pyricularia oryzae; peptide 10 μM) | Plate antimicrobial activity test Pyricularia oryzae (level) (Pyricularia oryzae; peptide 100 μM)

ILLSLEIFERKFSRSVWYYGFP [TsORF18-1]
0: Plate antimicrobial activity test Botrytis cinerea (level) (Botrytis cinerea; peptide 1 μM) | Plate antimicrobial activity test Botrytis cinerea (level) (Botrytis cinerea; peptide 10 μM) | Plate antimicrobial activity test Botrytis cinerea (level) (Botrytis cinerea; peptide 100 μM) | Plate antimicrobial activity test Colletotrichum destructivum (level) ([1]; peptide 1 μM) | Plate antimicrobial activity test Colletotrichum destructivum (level) ([1]; peptide 10 μM) | Plate antimicrobial activity test Colletotrichum destructivum (level) ([1]; peptide 100 μM) | Plate antimicrobial activity test Collectotrichum orbiculare (level) ([2]; peptide 1 μM) | Plate antimicrobial activity test Collectotrichum orbiculare (level) ([2]; peptide 10 μM) | Plate antimicrobial activity test Collectotrichum orbiculare (level) ([2]; peptide 100 μM) | Plate antimicrobial activity test Fusarium oxysporum (level) (Fusarium oxysporum) | Plate antimicrobial activity test Pyricularia oryzae (level) (Pyricularia oryzae; peptide 1 μM) | Plate antimicrobial activity test Pyricularia oryzae (level) (Pyricularia oryzae; peptide 10 μM) | Plate antimicrobial activity test Pyricularia oryzae (level) (Pyricularia oryzae; peptide 100 μM)

IWKGK (listed as Solanum lycopersicum) [TsORF18-2-5aa-17]
0: Plate antimicrobial activity test Botrytis cinerea (level) (Botrytis cinerea; peptide 1 μM) | Plate antimicrobial activity test Botrytis cinerea (level) (Botrytis cinerea; peptide 10 μM) | Plate antimicrobial activity test Botrytis cinerea (level) (Botrytis cinerea; peptide 100 μM) | Plate antimicrobial activity test Colletotrichum destructivum (level) ([1]; peptide 1 μM) | Plate antimicrobial activity test Colletotrichum destructivum (level) ([1]; peptide 10 μM) | Plate antimicrobial activity test Colletotrichum destructivum (level) ([1]; peptide 100 μM) | Plate antimicrobial activity test Collectotrichum orbiculare (level) ([2]; peptide 1 μM) | Plate antimicrobial activity test Collectotrichum orbiculare (level) ([2]; peptide 10 μM) | Plate antimicrobial activity test Collectotrichum orbiculare (level) ([2]; peptide 100 μM) | Plate antimicrobial activity test Fusarium oxysporum (level) (Fusarium oxysporum) | Plate antimicrobial activity test Pyricularia oryzae (level) (Pyricularia oryzae; peptide 1 μM) | Plate antimicrobial activity test Pyricularia oryzae (level) (Pyricularia oryzae; peptide 10 μM) | Plate antimicrobial activity test Pyricularia oryzae (level) (Pyricularia oryzae; peptide 100 μM)

KGKTS (listed as Solanum lycopersicum) [TsORF18-2-5aa-19]
0: Plate antimicrobial activity test Botrytis cinerea (level) (Botrytis cinerea; peptide 1 μM) | Plate antimicrobial activity test Botrytis cinerea (level) (Botrytis cinerea; peptide 10 μM) | Plate antimicrobial activity test Botrytis cinerea (level) (Botrytis cinerea; peptide 100 μM) | Plate antimicrobial activity test Colletotrichum destructivum (level) ([1]; peptide 1 μM) | Plate antimicrobial activity test Colletotrichum destructivum (level) ([1]; peptide 10 μM) | Plate antimicrobial activity test Colletotrichum destructivum (level) ([1]; peptide 100 μM) | Plate antimicrobial activity test Collectotrichum orbiculare (level) ([2]; peptide 1 μM) | Plate antimicrobial activity test Collectotrichum orbiculare (level) ([2]; peptide 10 μM) | Plate antimicrobial activity test Collectotrichum orbiculare (level) ([2]; peptide 100 μM) | Plate antimicrobial activity test Fusarium oxysporum (level) (Fusarium oxysporum) | Plate antimicrobial activity test Pyricularia oryzae (level) (Pyricularia oryzae; peptide 1 μM) | Plate antimicrobial activity test Pyricularia oryzae (level) (Pyricularia oryzae; peptide 10 μM) | Plate antimicrobial activity test Pyricularia oryzae (level) (Pyricularia oryzae; peptide 100 μM)
